Each block holds one compound with its values, some of them ahead of it.
Assays:
[1] = target: T1, recombinant UMPS (Homo sapiens, UniProt P11172); assay: in vitro UMPS activity assay (LC/MS detection of OMP and UMP); format: biochemical; conditions: for UMP production by UMPS / abundance of OMP: increasing concentrations of inhibitor
T1 construct: The UMPS gene was amplified from the pDONR223-UMPS template using the primers JC624/JC625; made in house; host or cells: HEK-293T cells, transient transfection, anti-FLAG immunopurification
T1 sequence (P11172 2-480 limits assumed): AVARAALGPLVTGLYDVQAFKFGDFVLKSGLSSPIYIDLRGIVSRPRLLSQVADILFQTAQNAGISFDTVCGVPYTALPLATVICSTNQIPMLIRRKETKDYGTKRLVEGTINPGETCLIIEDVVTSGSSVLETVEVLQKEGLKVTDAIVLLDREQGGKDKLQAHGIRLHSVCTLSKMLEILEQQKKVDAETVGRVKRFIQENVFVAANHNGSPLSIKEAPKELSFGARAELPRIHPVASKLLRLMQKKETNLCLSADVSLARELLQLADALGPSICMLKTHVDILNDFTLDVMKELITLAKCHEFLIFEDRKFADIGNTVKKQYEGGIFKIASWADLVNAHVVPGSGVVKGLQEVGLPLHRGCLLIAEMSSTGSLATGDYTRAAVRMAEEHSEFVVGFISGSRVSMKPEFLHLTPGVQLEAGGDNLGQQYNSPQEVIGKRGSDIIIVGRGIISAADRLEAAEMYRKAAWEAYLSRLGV
Method: An UMPS mutant (Y37A, R155A), which was designed based on a recently deposited structure of the OPRT domain of human UMPS (Protein Data Bank entry 2WNS, chains A and B) (FIG. 12), had no activity and served as a negative control in the assay.
For metabolite profiling of LIMPS activity assay samples, reaction mixtures were extracted as described (see LIMPS activity assay) and 5 μL of each sample was injected for LC/MS analysis as described for profiling media samples, except that the mass spectrometer was operated in full scan, negative ionization mode only.
For orotate, PRPP, OMP, and UMP in UMPS assay samples, all settings as described for the tSIM scan used for FdUMP and FUMP were identical except that the maximum integration time was 200 msec, and the target masses were 155.0088 (corresponding to orotate), 323.0286 (corresponding to UMP), 367.0184 (corresponding to OMP), and 388.9445 (corresponding to PRPP).
For transfection of HEK-293 T cells, 4 million cells were plated in 15 cm culture dishes. After 24 hr, cells were transfected with 15 μg of pLJC2-UMPS-3×FLAG or pLJC2-UMPS (Y37A, R155A)-3×FLAG using the polyethylenimine method (Boussif et al., 1995). After 48 hr, cells were rinsed one time with ice-cold PBS and then immediately lysed with lysis buffer (1% Triton X-100, 40 mM Tris-HCl pH 7.5, 100 mM NaCl, 5 mM MgCl2, 1 tablet of EDTA-free protease inhibitor (Roche 11580800; per 25 mL buffer), 1 tablet of PhosStop phosphatase inhibitor (Roche 04906845001; per 10 mL buffer)). The cell lysates were cleared by centrifugation at 21130 g for 10 min at 4° C. For anti-FLAG immunoprecipitation, the FLAG-M2 affinity gel (Sigma A2220) was washed 3 times in lysis buffer. For each experiment, 500 μL of a 50/50 slurry of the affinity gel was then added to a pool of clarified lysates collected from 5 individual 15 cm culture dishes, and incubated with rotation for 3 hr at 4° C. Following immunoprecipitation, the beads were washed 2 times in lysis buffer and 3 times with lysis buffer containing 500 mM NaCl. Recombinant protein was then eluted in lysis buffer containing 1 mg/mL FLAG peptide for 1 hr at 4° C. The eluent was isolated by centrifugation at 100 g for 4 min at 4° C. (BioRad micro bio-spin column 732-6204), buffer exchanged (Amicon Ultra 30K NMWL) against 20 volumes of storage buffer (40 mM Tris-HCl pH 7.5, 100 mM NaCl, 1.5 mM dTT), mixed with glycerol (final concentration 15% v/v), and finally snap-frozen with liquid nitrogen and stored at −80° C. Protein samples were quantified using Bradford reagent and a BSA standard, and verified by 12% SDS-PAGE.
Reactions of each purified LIMPS variant (20-40 nM enzyme) with orotate (100 μM) and PRPP (300 μM) were carried out at 37° C. in 20 mM Tris-HCl pH 7.5, 5 mM Na2HPO4, […], 2 mM 2 mM dTT, 100 μM EDTA (adapted from (Han et al., 1995)), and various concentrations of putative inhibitors in a total volume of 100 μL. Following 20 min incubation, a 15 μL aliquot of the reaction mixture was removed and immediately added to 85 μL ice-cold 80% methanol for metabolite extraction, vortexed for 5 min, and centrifuged at 21130 g for 1 min at 4° C.
Stock solutions of 6-azauridine, 6-aza-UMP, 9-methyluric acid, allantoin, allopurinol, and uric acid were made up fresh at 200 mM in 1 M NaOH, and upon appropriate dilutions, had little effect on reaction pH.
An OMP chemical standard was not available.

[2] = system: six hematological cancer cell lines; assay: metabolite profiling of six hematological cancer cell lines; format: cell-based, human; conditions: 350 μM uric acid added to RPMI+IFS, compared to RPMI+IFS
Method: To test the hypothesis that culturing cells in a medium that better mimics the metabolic composition of human plasma alters cellular metabolism compared to that in established media, the metabolite profiles of cells cultured in HPLM^+dIFS were compared to those in RPMI^+IFS or RPMI^+dIFS.
(§1) After 24 hr incubation, cells were centrifuged at 250 g for 5 min, resuspended in 1 mL ice-cold 0.9% sterile NaCl, and again centrifuged at 250 g for 5 min at 4° C. Metabolites were extracted in a 1 mL solution of 80% methanol containing 10 ng/mL phenylalanine-d8 as an internal standard. Following a 10 min vortex and centrifugation for […] 10 min at 4° C., samples were dried under nitrogen gas. Dried samples were stored at −80° C. and then resuspended in 100 μL water; 4 μL of each cell sample was injected for LC/MS analysis as described for profiling media samples. For all experiments, an additional culture replicate was set up identically and used for measuring cell number and volume, which were each measured using a Beckman Z2 Coulter Counter with a diameter setting of 8-30 μm.

[3] = system: K562 cells; assay: metabolite profiling of K562 cells (intracellular pyrimidine pathway metabolites); format: cell-based, human
Method: To determine which component(s) of HPLM^+dIFS affects the de novo pyrimidine synthesis pathway, K562 cells were cultured in HPLM^+dIFS derivatives lacking: (1) acetone, creatine, creatinine, formate, fructose, galactose, glutathione, glycerol, and hypoxanthine; (2) non-proteinogenic amino acids (8 metabolites); (3) water-soluble acids (8 metabolites); (4) urea; or (5) uric acid (FIG. 5A). […] HPLM^+dIFS contains uric acid at […], a concentration that is 40- and at least 500-fold greater than that of RPMI^+IFS and RPMI^+dIFS, respectively (FIG. 5C), and, importantly, its intracellular concentration reflects that of the corresponding culture medium (FIG. 5D).
To determine whether uric acid might cause inhibition of UMPS, an established UMPS inhibitor was studied to see if it had similar effects on the de novo pyrimidine biosynthesis pathway as uric acid in disclosed cells. […] Using LC/MS-based metabolite profiling, a species whose mass-to-charge ratio (m/z) matched the predicted m/z of allopurinol ribonucleotide was detected, and the magnitude correlated with the concentration of allopurinol in the media (FIG. 11D). Importantly, this species could be distinguished from its isomer, IMP, by their differing chromatographic retention times. […] However, a metabolite peak consistent with a putative uric acid ribonucleotide was not detected.
as §1

[4] = system: SW620 cells; assay: drug treatment assay, cell viability by Cell-Titer Glo; format: cell-based, human; conditions: removal of uric acid from HPLM+dIFS
Method: SW620 cells were seeded at a density of 2000 cells/well and allowed to attach for 24 hr. 5-FU and doxorubicin were prepared in DMSO and dispensed using an HP D300 compound dispenser. Cell viability was assessed with Cell-Titer Glo at 4 days following treatment and luminescence was measured as described above.
(§2) Dose-response values were plotted in GraphPad Prism and fit using a One Site-Fit log IC50 equation.

[5] = system: NOMO1 cells; assay: drug treatment assay, cell viability by Cell Titer-Glo; format: cell-based, human
Method: After 24 hr incubation, cells were treated with 5-FU (100 nM, 1 μM, 10 μM, 100 μM, or 1 mM) or doxorubicin (1.95 nM, 7.81 nM, 31.25 nM, 125 nM, or 500 nM). All wells, including untreated controls, contained 0.5% DMSO. Following addition of drugs, plates were gently shaken for 2 min. After 4 days of treatment, 200 μL from each well was transferred to a white 96-well plate (Greiner) and cell viability was assessed with Cell Titer-Glo (Promega). Luminescence was measured with a SpectraMax M5 Plate Reader (Molecular Devices) and normalized to an untreated control.
as §2

[6] = system: NOMO1 cells; assay: 5-FU treatment for LC/MS (intracellular 5-FU, FdUMP, FUMP); conditions: 20 μM 5-FU, 24 hr
[7] = target: T2, ODC domain of UMPS (Homo sapiens, UniProt P11172); conditions: literature; cited from earlier work
T2 sequence (P11172 1-480): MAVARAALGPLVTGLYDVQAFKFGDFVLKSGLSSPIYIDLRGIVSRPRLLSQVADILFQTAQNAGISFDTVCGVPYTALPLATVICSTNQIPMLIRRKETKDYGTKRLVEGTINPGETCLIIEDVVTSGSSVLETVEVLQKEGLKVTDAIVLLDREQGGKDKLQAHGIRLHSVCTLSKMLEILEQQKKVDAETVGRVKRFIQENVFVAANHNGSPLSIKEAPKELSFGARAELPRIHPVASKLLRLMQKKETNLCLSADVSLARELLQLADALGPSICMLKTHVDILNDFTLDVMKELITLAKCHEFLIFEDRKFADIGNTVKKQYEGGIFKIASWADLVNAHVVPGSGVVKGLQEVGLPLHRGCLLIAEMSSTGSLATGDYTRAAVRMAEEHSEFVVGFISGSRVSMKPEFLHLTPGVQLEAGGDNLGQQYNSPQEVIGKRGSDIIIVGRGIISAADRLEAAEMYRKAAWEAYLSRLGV

[8] = system: certain cancer cell lines; conditions: Schwartz and Handschumacher, 1979; cited from earlier work

direct inhibition of UMPS [1]: did not directly inhibit UMPS
Structure (SMILES): O=c1cnn([C@@H]2O[C@H](CO)[C@@H](O)[C@H]2O)c(=O)[nH]1 [6-azauridine]

abundance of OMP [1]: increased OMP | UMP levels relative to reactions containing vehicle ([1]; uric acid at 1 mM): ~30%
Structure (SMILES): O=c1[nH]c(=O)c2[nH]c(=O)[nH]c2[nH]1 [uric acid]
UTP abundance [2]: cell line-dependent effects on UTP abundance | orotate and orotidine levels [2]: greatly boosted orotate and orotidine levels | direct inhibition of UMPS [1]: direct inhibitor of the ODC domain of UMPS | UMP production by UMPS [1]: dose-dependently inhibited UMP production by UMPS | orotate and orotidine abundances ([3]; HPLM+dIFS containing increasing concentrations of uric acid): dose-dependently increased orotate and orotidine abundances | orotate and orotidine levels on removal of the component from HPLM+dIFS ([3]; dropout formulations of HPLM+dIFS): reduced orotate and orotidine levels to those of cells cultured in RPMI | accumulation of OMP ([3]; highest tested concentration (700 μM)): led to a detectable accumulation of OMP

Structure (SMILES): COc1cccc2c1C(=O)c1c(O)c3c(c(O)c1C2=O)C[C@@](O)(C(=O)CO)C[C@@H]3O[C@H]1C[C@H](N)[C@H](O)[C@H](C)O1 [doxorubicin]
doxorubicin sensitivity [4]: did not influence doxorubicin sensitivity | potency of doxorubicin ([5]; culture in HPLM+dIFS compared to RPMI+IFS and RPMI+dIFS): without affecting the potency of doxorubicin | doxorubicin sensitivity ([5]; removal of uric acid from HPLM+dIFS): without affecting doxorubicin sensitivity

intracellular abundances of FdUMP and 5-FU ([6]; uric acid-containing HPLM+dIFS vs lacking uric acid): little effect
Structure (SMILES): O=c1[nH]cc(F)c(=O)[nH]1 [5-FU, 5-Fluorouracil]
FUMP levels ([6]; uric acid-containing HPLM+dIFS): below the limit of detection

UMP levels relative to reactions containing vehicle ([1]; 6-aza-UMP at 50 μM): ~3%
Structure (SMILES): O=c1cnn([C@@H]2O[C@H](COP(=O)(O)O)[C@@H](O)[C@H]2O)c(=O)[nH]1 [6-aza-UMP]
UMP production by UMPS [1]: dose-dependently decreased UMP production by UMPS | abundance of OMP [1]: dramatically increased the abundance of OMP | inhibition of the ODC domain of UMPS [7]: competitively inhibit the ODC domain of UMPS

direct inhibition of UMPS [1]: did not directly inhibit UMPS
Structure (SMILES): Cn1c(=O)[nH]c2c(=O)[nH]c(=O)[nH]c21 [9-methyluric acid]
levels of orotate, orotidine, or the other intermediates in the de novo pyrimidine biosynthesis pathway ([3]; 350 μM in HPLM+dIFS, compared to HPLM+dIFS lacking uric acid): did not alter the levels

Structure (SMILES): O=c1[nH]cnc2c1cnn2C1O[C@H](COP(=O)(O)O)[C@@H](O)[C@H]1O (stereo partly drawn) [allopurinol ribonucleotide]
inhibition of the ODC domain of UMPS [7]: competitively inhibit the ODC domain of UMPS

direct inhibition of UMPS [1]: did not directly inhibit UMPS
Structure (SMILES): NC(=O)NC1NC(=O)NC1=O (stereo not drawn) [allantoin]

direct inhibition of UMPS [1]: did not directly inhibit UMPS
Structure (SMILES): Oc1ncnc2[nH]ncc12 [allopurinol]
sensitivity of cancer cell lines to 5-FU [8]: reduces the sensitivity of certain cancer cell lines to 5-FU | levels of carbamoylaspartate, dihydroorotate, orotate, orotidine, and OMP ([3]; HPLM+dIFS lacking uric acid, increasing concentrations of allopurinol): dose-dependently increased the levels | decrease in abundance of UTP ([3]; highest tested concentration of allopurinol): ~30%
